Source: ChEMBL document CHEMBL4765442, “Anti-Giardia Drug Discovery: Current Status and Gut Feelings” (J Med Chem, 2020)
Values after ≈ are worked out from the molar mass of the structure shown. Values belong to the molecule of their own block, whether it stands above or below them.

What was measured:
[1] = test system: Giardia intestinalis; assay: Antigiardial activity against Giardia intestinalis IMSS:0696:1 incubated for 48 hrs followed by wash out by hemocytometric counting method; format: functional, organism-based; details: Giardia duodenalis, IMSS:0696:1, 48 h
[2] = test system: Giardia intestinalis; assay: Antigiardial activity against Giardia intestinalis WB ATCC 30957 incubated for 72 hrs by hemocytometric counting method; format: functional, organism-based; details: Giardia duodenalis, WB ATCC 30957, 72 h
[3] = test system: Giardia intestinalis; assay: Antigiardial activity against Giardia lamblia P1 incubated for 48 hrs by haemocytometric counting method; format: functional, organism-based; details: Giardia duodenalis, P1, 48 h
[4] = test system: Giardia intestinalis; assay: Antigiardial activity against Giardia lamblia WB incubated for 48 hrs by microscopic method; format: functional, organism-based; details: Giardia duodenalis
[5] = test system: Giardia intestinalis; assay: Antigiardial activity against Giardia lamblia H/7 incubated for 48 hrs by microscopic method; format: functional, organism-based; details: Giardia duodenalis, H/7, 48 h
[6] = Half-life of the compound; format: physicochemical
[7] = test system: Giardia intestinalis; assay: Antigiardial activity against Giardia intestinalis WB incubated for 48 hrs by hemocytometric counting method; format: functional, organism-based; details: Giardia duodenalis
[8] = test system: Giardia intestinalis; assay: Antigiardial activity against Giardia intestinalis N1-INP incubated for 48 hrs followed by hemocytometric counting method; format: functional, organism-based; details: Giardia duodenalis
[9] = test system: Giardia intestinalis; assay: Antigiardial activity against Giardia intestinalis WB30957 incubated for 48 hrs followed by hemocytometric counting method; format: functional, organism-based; details: Giardia duodenalis, WB30957, 48 h
[10] = test system: Giardia intestinalis; assay: Antigiardial activity against Giardia intestinalis IMSS-1090-1 incubated for 48 hrs followed by hemocytometric counting method; format: functional, organism-based; details: Giardia duodenalis, IMSS-1090-1, 48 h
[11] = test system: Giardia intestinalis; assay: Antigiardial activity against Giardia intestinalis UNAM-0688-2 incubated for 48 hrs followed by hemocytometric counting method; format: functional, organism-based; details: Giardia duodenalis, UNAM-0688-2, 48 h
[12] = test system: Giardia intestinalis; assay: Antigiardial activity against Giardia intestinalis BRIS/91/HEPU/1411 incubated for 48 hrs followed by compound wash out by hemocytometric counting method; format: functional, organism-based; details: Giardia duodenalis, BRIS/91/HEPU/1411, 48 h
[13] = test system: Giardia intestinalis; assay: Antigiardial activity against metronidazole-resistant Giardia duodenalis WB-M3; format: functional
[14] = test system: Giardia intestinalis; assay: Antigiardial activity against metronidazole-resistant Giardia duodenalis 106-2ID10; format: functional
[15] = test system: Giardia intestinalis; assay: Antigiardial activity against metronidazole-resistant Giardia duodenalis 713-M3; format: functional
[16] = test system: Giardia intestinalis; assay: Antigiardial activity against Giardia duodenalis GS/M-83-H7 (ATCC 50581) incubated for 3 days by fluorescence method; format: functional, organism-based; details: 72 h
[17] = test system: Giardia intestinalis; assay: Antigiardial activity against Giardia duodenalis WB (ATCC 30957) incubated for 3 days by fluorescence method; format: functional, organism-based; details: WB ATCC 30957, 72 h
[18] = test system: Giardia intestinalis; assay: Antigiardial activity against Giardia duodenalis G1 incubated for 3 days by fluorescence method; format: functional, organism-based; details: G1, 72 h
[19] = test system: Giardia intestinalis; assay: Antigiardial activity against Giardia duodenalis Ah1 incubated for 3 days by fluorescence method; format: functional, organism-based; details: Ah1, 72 h
[20] = test system: Giardia intestinalis; assay: Antigiardial activity against Giardia duodenalis Ah2 incubated for 3 days by fluorescence method; format: functional, organism-based; details: Ah2, 72 h
[21] = test system: Giardia intestinalis; assay: Antigiardial activity against Giardia duodenalis Ac1 incubated for 3 days by fluorescence method; format: functional, organism-based; details: Ac1, 72 h
[22] = test system: Giardia intestinalis; assay: Antigiardial activity against Giardia duodenalis Ac2 incubated for 3 days by fluorescence method; format: functional, organism-based; details: Ac2, 72 h
[23] = test system: Giardia intestinalis; assay: Antigiardial activity against Giardia duodenalis Ec1 incubated for 3 days by fluorescence method; format: functional, organism-based; details: Ec1, 72 h
[24] = test system: Giardia intestinalis; assay: Antigiardial activity against Giardia duodenalis Ec2 incubated for 3 days by fluorescence method; format: functional, organism-based; details: Ec2, 72 h
[25] = test system: Giardia intestinalis; assay: Antigiardial activity against Giardia lamblia WB (ATCC 30957) incubated for 3 days by [3H]thymidine incorporation based assay; format: functional, organism-based; details: Giardia duodenalis
[26] = test system: Giardia intestinalis; assay: Growth inhibition of Giardia duodenalis isolate 14-03/F7 measured after 24 hrs by resazurin based assay; format: functional, organism-based; details: isolate 14-03/F7, 24 h
[27] = test system: Giardia intestinalis; assay: Antigiardial activity against Giardia duodenalis BRIS/91/HEPU/1279 incubated for 3 days followed by compound wash-out and measured after 4 days; format: functional; details: time 3 day
[28] = test system: Giardia intestinalis; assay: Antigiardial activity against Giardia duodenalis BRIS/83/HEPU/106 incubated for 3 days followed by compound wash-out and measured after 4 days; format: functional; details: time 3 day
[29] = test system: Giardia intestinalis; assay: Antigiardial activity against metronidazole-resistant Giardia duodenalis BRIS/83/HEPU/106-2ID10 incubated for 3 days followed by compound wash-out and measured after 4 days; format: functional; details: time 3 day
[30] = test system: Giardia intestinalis; assay: Antigiardial activity against metronidazole-resistant Giardia duodenalis WB1B-M3 incubated for 3 days followed by compound wash-out and measured after 4 days; format: functional; details: time 3 day
[31] = test system: Giardia intestinalis; assay: Antigiardial activity against Giardia intestinalis incubated for 48 hrs; format: functional, organism-based; details: Giardia duodenalis
[32] = test system: Giardia intestinalis; assay: Antigiardial activity against Giardia lamblia WB incubated for 48 hrs by haemocytometric counting method; format: functional; details: Giardia duodenalis, read-out: LD50 (the source's name)
[33] = test system: Giardia intestinalis; assay: Antigiardial activity against drug susceptible Giardia lamblia incubated for 48 hrs by haemocytometric counting method; format: functional; details: Giardia duodenalis, read-out: LD50 (the source's name)
[34] = test system: Giardia intestinalis; assay: Antigiardial activity against nitazoxanide resistant Giardia lamblia N1-INP incubated for 48 hrs by haemocytometric counting method; format: functional; details: Giardia duodenalis, read-out: LD50 (the source's name)
[35] = test system: Giardia intestinalis; assay: Antimicrobial activity against Giardia lamblia BRIS/87/HEPU/713 trophozoites measured after 48 hrs by BacTiter-Glo cell viability assay; format: functional, organism-based; details: Giardia duodenalis, BRIS/87/HEPU/713, 48 h
[36] = Selectivity ratio of CC50 for human HeLa cells incubated for 2 days by alamarBlue reagent to IC50 for Giardia lamblia BRIS/87/HEPU/713 measured after 48 hrs by BacTiter-Glo cell viability assay; format: toxicity; details: read-out: Ratio CC50/IC50
[37] = test system: Giardia intestinalis; assay: Antimicrobial activity against Giardia lamblia BRIS/83/HEPU/106 trophozoites measured after 2 days by BacTiter-Glo cell viability assay; format: functional, organism-based; details: Giardia duodenalis, BRIS/83/HEPU/106, 48 h
[38] = test system: Giardia intestinalis; assay: Antimicrobial activity against Giardia lamblia 713M3 trophozoites measured after 2 days by BacTiter-Glo cell viability assay; format: functional, organism-based; details: Giardia duodenalis, 713M3, 48 h
[39] = test system: Giardia intestinalis; assay: Antimicrobial activity against Giardia lamblia WB-M2 trophozoites measured after 2 days by BacTiter-Glo cell viability assay; format: functional, organism-based; details: Giardia duodenalis, WB-M2, 48 h
[40] = Selectivity ratio of CC50 for human HeLa cells incubated for 2 days by alamarBlue reagent to IC50 for Giardia lamblia BRIS/83/HEPU/106 measured after 48 hrs by BacTiter-Glo cell viability assay; format: toxicity; details: read-out: Ratio CC50/IC50
[41] = Selectivity ratio of CC50 for human HeLa cells incubated for 2 days by alamarBlue reagent to IC50 for Giardia lamblia 713M3 measured after 48 hrs by BacTiter-Glo cell viability assay; format: toxicity; details: read-out: Ratio CC50/IC50
[42] = Selectivity ratio of CC50 for human HeLa cells incubated for 2 days by alamarBlue reagent to IC50 for Giardia lamblia WB-M2 measured after 48 hrs by BacTiter-Glo cell viability assay; format: toxicity; details: time 2 day, read-out: Ratio CC50/IC50
[43] = Selectivity ratio of EC50 for Giardia lamblia WB-M2 trophozoites to EC50 for Giardia lamblia BRIS/87/HEPU/713 trophozoites; format: functional
[44] = Selectivity ratio of EC50 for Giardia lamblia 713-M3 trophozoites to EC50 for Giardia lamblia BRIS/87/HEPU/713 trophozoites; format: functional
[45] = test system: Giardia intestinalis; assay: Antigiardial activity against metronidazole-resistant Giardia lamblia 713-M3 incubated for 48 hrs; format: functional, organism-based; details: Giardia duodenalis, 713-M3, 48 h
[46] = test system: Giardia intestinalis; assay: Antigiardial activity against Giardia lamblia WBC6 incubated for 48 hrs; format: functional, organism-based; details: Giardia duodenalis, WBC6, 48 h
[47] = test system: Giardia intestinalis; assay: Antigiardial activity against Giardia lamblia 713 incubated for 48 hrs; format: functional, organism-based; details: Giardia duodenalis, 713, 48 h

IC50 [1]: 500 nM
Structure (SMILES): Cc1ncc([N+](=O)[O-])n1CC(C)OC(=O)Nc1ccc(F)cc1 (stereo unspecified)

IC50 [2]: 970 nM
Structure (SMILES): Cc1ncc([N+](=O)[O-])n1CCN1CCN(c2ccnc3cc(Cl)ccc23)CC1

IC50 [3]: 60 nM
IC50 [4]: 60 nM
IC50 [5]: 60 nM
half-life [6]: 2.5 h
Structure (SMILES): COC(=O)Nc1nc2ccc(C(=O)c3ccccc3)cc2[nH]1 [MEBENDAZOLE]

IC50 [7]: 10 nM
IC50 [8]: 71 nM
IC50 [9]: 10 nM
IC50 [10]: 10 nM
IC50 [11]: 10 nM
IC50 [12]: 10 nM
Structure (SMILES): CSc1nc2cc(Cl)c(C(=O)Nc3ncc([N+](=O)[O-])s3)cc2n1C

MIC [13]: 5 µM (≈ 2.02 µg/mL)
MIC [14]: 5 µM (≈ 2.02 µg/mL)
MIC [15]: 10 µM (≈ 4.03 µg/mL)
Structure (SMILES): Cc1ccc(C(Br)C(Br)c2ncc([N+](=O)[O-])n2C)cc1 (stereo unspecified)

IC50 [16]: 500 nM
IC50 [17]: 500 nM
IC50 [18]: 500 nM
IC50 [19]: 500 nM
IC50 [20]: 500 nM
IC50 [21]: 500 nM
IC50 [22]: 500 nM
IC50 [23]: 500 nM
IC50 [24]: 500 nM
IC50 [25]: 500 nM
IC50 [1]: 4400 nM
IC50 [31]: 1000 nM
half-life [6]: 6 h
Structure (SMILES): Cc1ncc([N+](=O)[O-])n1CCO [METRONIDAZOLE]
IC50 [26]: 6200 nM
MLC [27]: 50 µM (≈ 8.56 µg/mL)
MLC [28]: 100 µM (≈ 17.1 µg/mL)
MLC [29]: >500 µM
MLC [30]: >500 µM

IC50 [1]: 500 nM
Structure (SMILES): Cc1ncc([N+](=O)[O-])n1CCOC(=O)NC1CCCCC1

IC50 [1]: 500 nM
Structure (SMILES): Cc1ncc([N+](=O)[O-])n1CCOC(=O)Nc1ccccc1

IC50 [16]: 300 nM
IC50 [17]: 300 nM
IC50 [18]: 300 nM
IC50 [19]: 300 nM
IC50 [20]: 300 nM
IC50 [21]: 300 nM
IC50 [22]: 300 nM
IC50 [23]: 300 nM
IC50 [24]: 300 nM
IC50 [25]: 300 nM
half-life [6]: 12 h
Structure (SMILES): CCS(=O)(=O)CCn1c([N+](=O)[O-])cnc1C [TINIDAZOLE]

Structure (SMILES): Cc1ncc([N+](=O)[O-])n1CC(C)OC(=O)Nc1ccc([N+](=O)[O-])cc1 (stereo unspecified)
IC50 [1]: 500 nM

Structure (SMILES): COc1ccc2[nH]c([S+]([O-])Cc3ncc(C)c(OC)c3C)nc2c1 (stereo unspecified) [OMEPRAZOLE]
LC50 [32]: 116 nM
LC50 [33]: 116 nM
LC50 [34]: 544 nM

IC50 [1]: 500 nM
Structure (SMILES): Cc1ncc([N+](=O)[O-])n1CC(C)OC(=O)NC1CCCCC1 (stereo unspecified)

IC50 [1]: 500 nM
Structure (SMILES): Cc1ncc([N+](=O)[O-])n1CCOC(=O)Nc1ccc(Cl)cc1

Structure (SMILES): CN(Cc1ccccc1)Cc1cn(CCCCCC(=O)Nc2ncc([N+](=O)[O-])s2)nn1
IC50 [35]: 100 nM
selectivity ratio at 48 h [36]: > 500
IC50 [37]: 100 nM
IC50 [38]: 100 nM
IC50 [39]: 6500 nM
selectivity ratio at 48 h [40]: > 8
selectivity ratio at 48 h [41]: > 8
selectivity ratio at 48 h [42]: > 8
Ratio EC50 [43]: 65
Ratio EC50 [44]: 20

IC50 [1]: 500 nM
Structure (SMILES): Cc1ncc([N+](=O)[O-])n1CC(C)OC(=O)Nc1ccccc1 (stereo unspecified)

EC50 [45]: 600 nM
EC50 [46]: 600 nM
EC50 [47]: 1200 nM
Structure (SMILES): CCOc1ccc2cc(-c3nc(C(C)(C)C)n4ccnc(N)c34)ccc2c1
